Assay results taken from patent US20250195521A1 (Revolution Medicines, Inc., priority 2020, published 2025).

Experiments:
Format in all cases: biochemical
[1] = molecular target: KRAS WT (Homo sapiens (Human), UniProt P01116+P62937); assay: Ras-Raf disruption/FRET/MOA assay, KRAS WT; details: read-out: KRAS WT FRET IC50
Excerpt: (§1) Disruption of B-Raf Ras-Binding Domain (BRAF^RBD) Interaction with K-Ras by Compounds of the Invention (Also Called a FRET Assay or an MOA Assay)
(§2) Note—The following protocol describes a procedure for monitoring disruption of K-Ras G12C (GMP-PNP) binding to BRAF^RBD by a compound of the invention. This protocol may also be executed substituting other Ras proteins or nucleotides, such as K-Ras G12D and K-Ras G13D.
(§3) The purpose of this biochemical assay was to measure the ability of test compounds to facilitate ternary complex formation between a nucleotide-loaded K-Ras isoform and Cyclophilin A; the resulting ternary complex disrupts binding to a BRAF^RBD construct, inhibiting K-Ras signaling through a RAF effector. Data is reported as IC50 values.
(§4) In assay buffer containing 25 mM HEPES pH 7.3, 0.002% Tween20, 0.1% BSA, 100 mM NaCl and 5 mM MgCl2, tagless Cyclophilin A, His6-K-Ras-GMPPNP, and GST-BRAF^RBD were combined in a 384-well assay plate at final concentrations of 25 μM, 12.5 nM, and 50 nM, respectively. Compound was present in plate wells as a 10-point 3-fold dilution series starting at a final concentration of 30 μM. After incubation at 25° C. for 3 hours, a mixture of anti-His Eu—W1024 and anti-GST allophycocyanin was then added to assay sample wells at final concentrations of 10 nM and 50 nM, respectively, and the reaction incubated for an additional 1.5 hours. […] Compounds that facilitate disruption of a K-Ras: RAF complex were identified as those eliciting a decrease in the TR-FRET ratio relative to DMSO control wells.

[2] = molecular target: KRAS G12V (Homo sapiens (Human), UniProt P01116+P62937, G12V); assay: Ras-Raf disruption/FRET/MOA assay, KRAS G12V; details: read-out: KRAS G12V FRET IC50
Excerpt: as §1, §2, §3, §4

[3] = molecular target: KRAS G13D (Homo sapiens (Human), UniProt P01116+P62937, G13D); assay: Ras-Raf disruption/FRET/MOA assay, KRAS G13D; details: read-out: KRAS G13D FRET IC50
Excerpt: as §1, §2, §3, §4

[4] = molecular target: KRAS G12C (Homo sapiens (Human), UniProt P01116+P62937, G12C); assay: Ras-Raf disruption/FRET/MOA assay, KRAS G12C; details: read-out: KRAS G12C FRET data IC50
Excerpt: as §1, §2, §3, §4

[5] = molecular target: NRAS G12C (Homo sapiens (Human), UniProt P01111+P62937, G12C); assay: Ras-Raf disruption/FRET/MOA assay, NRAS G12C; details: read-out: NRAS G12C FRET data IC50
Excerpt: as §1, §2, §3, §4

[6] = molecular target: KRAS G13C (Homo sapiens (Human), UniProt P01116+P62937, G13C); assay: Ras-Raf disruption/FRET/MOA assay, KRAS G13C; details: read-out: KRAS G13C FRET IC50
Excerpt: as §1, §2, §3, §4

[7] = molecular target: KRAS G12D (Homo sapiens (Human), UniProt P01116+P62937, G12D); assay: Ras-Raf disruption/FRET/MOA assay, KRAS G12D; details: read-out: KRAS G12D FRET IC50
Excerpt: as §1, §2, §3, §4

[8] = molecular target: KRAS G12S (Homo sapiens (Human), UniProt P01116+P62937, G12S); assay: Ras-Raf disruption/FRET/MOA assay, KRAS G12S; details: read-out: KRAS G12S FRET IC50
Excerpt: as §1, §2, §3, §4

Chain of KRAS G13C (P01116 other isoform, or with tags, fused parts or gaps G13C): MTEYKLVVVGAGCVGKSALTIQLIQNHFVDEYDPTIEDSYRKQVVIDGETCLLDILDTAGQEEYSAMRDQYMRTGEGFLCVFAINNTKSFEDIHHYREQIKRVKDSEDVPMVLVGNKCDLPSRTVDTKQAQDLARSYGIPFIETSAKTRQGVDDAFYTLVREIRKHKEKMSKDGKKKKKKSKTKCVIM
Chain of KRAS G13C (P62937 whole entry): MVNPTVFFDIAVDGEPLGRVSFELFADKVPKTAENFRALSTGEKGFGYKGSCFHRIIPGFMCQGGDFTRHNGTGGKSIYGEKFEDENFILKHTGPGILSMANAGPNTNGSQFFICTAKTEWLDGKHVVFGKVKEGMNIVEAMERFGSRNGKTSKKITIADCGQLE
Chain of KRAS G12S (P01116 other isoform, or with tags, fused parts or gaps G12S): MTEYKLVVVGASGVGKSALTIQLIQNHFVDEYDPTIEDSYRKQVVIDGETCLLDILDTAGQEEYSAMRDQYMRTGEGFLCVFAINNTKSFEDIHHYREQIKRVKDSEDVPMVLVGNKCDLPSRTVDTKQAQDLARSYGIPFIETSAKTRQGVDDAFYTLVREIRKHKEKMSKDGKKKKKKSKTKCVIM
Chain of KRAS G12S (P62937 whole entry): as the sequence (P62937 whole entry) above
Chain of NRAS G12C (P01111 whole entry G12C): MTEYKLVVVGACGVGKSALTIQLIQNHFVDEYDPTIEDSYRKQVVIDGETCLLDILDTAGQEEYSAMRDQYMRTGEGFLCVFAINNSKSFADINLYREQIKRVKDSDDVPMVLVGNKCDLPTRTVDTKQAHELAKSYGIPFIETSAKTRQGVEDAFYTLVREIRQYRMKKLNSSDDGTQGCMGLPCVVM
Chain of NRAS G12C (P62937 whole entry): as the sequence (P62937 whole entry) above
Chain of KRAS WT (P01116 other isoform, or with tags, fused parts or gaps): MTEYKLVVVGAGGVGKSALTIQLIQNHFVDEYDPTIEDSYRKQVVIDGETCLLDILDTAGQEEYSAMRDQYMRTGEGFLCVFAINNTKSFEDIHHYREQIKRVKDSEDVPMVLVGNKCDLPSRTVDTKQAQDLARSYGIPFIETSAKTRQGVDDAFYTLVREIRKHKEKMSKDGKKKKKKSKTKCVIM
Chain of KRAS WT (P62937 whole entry, the tested form may be a part): as the sequence (P62937 whole entry) above
Chain of KRAS G13D (P01116 other isoform, or with tags, fused parts or gaps G13D): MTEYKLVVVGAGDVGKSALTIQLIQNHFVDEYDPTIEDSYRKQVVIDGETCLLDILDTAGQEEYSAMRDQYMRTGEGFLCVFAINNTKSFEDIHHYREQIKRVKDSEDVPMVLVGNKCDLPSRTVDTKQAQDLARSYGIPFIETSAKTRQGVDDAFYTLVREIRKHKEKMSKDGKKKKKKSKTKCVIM
Chain of KRAS G13D (P62937 whole entry): as the sequence (P62937 whole entry) above
Chain of KRAS G12D (P01116 other isoform, or with tags, fused parts or gaps G12D): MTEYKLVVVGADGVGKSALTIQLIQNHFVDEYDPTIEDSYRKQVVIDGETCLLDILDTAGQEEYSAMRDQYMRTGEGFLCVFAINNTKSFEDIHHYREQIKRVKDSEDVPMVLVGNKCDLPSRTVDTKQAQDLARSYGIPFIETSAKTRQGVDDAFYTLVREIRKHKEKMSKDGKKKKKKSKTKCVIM
Chain of KRAS G12D (P62937 whole entry): as the sequence (P62937 whole entry) above
Chain of KRAS G12V (P01116 other isoform, or with tags, fused parts or gaps G12V): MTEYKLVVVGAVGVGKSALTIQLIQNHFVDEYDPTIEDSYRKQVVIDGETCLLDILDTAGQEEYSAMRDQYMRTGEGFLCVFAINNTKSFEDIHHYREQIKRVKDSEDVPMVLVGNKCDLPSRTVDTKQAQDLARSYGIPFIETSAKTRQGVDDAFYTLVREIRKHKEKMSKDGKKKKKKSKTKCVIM
Chain of KRAS G12V (P62937 whole entry): as the sequence (P62937 whole entry) above
Chain of KRAS G12C (P01116-2 other isoform, or with tags, fused parts or gaps G12C): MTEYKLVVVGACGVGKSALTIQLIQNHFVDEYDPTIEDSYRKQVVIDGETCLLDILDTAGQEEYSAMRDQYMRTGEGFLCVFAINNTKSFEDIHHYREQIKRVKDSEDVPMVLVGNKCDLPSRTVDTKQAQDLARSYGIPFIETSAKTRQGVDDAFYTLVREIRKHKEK
Chain of KRAS G12C (P62937 whole entry): as the sequence (P62937 whole entry) above

Compound | IC50 [1] [nM] | IC50 [2] [nM] | IC50 [3] [nM] | IC50 [4] [nM] | IC50 [5] [nM] | IC50 [6] [nM] | IC50 [7] [nM] | IC50 [8] [nM]
CCn1c(-c2cccnc2[C@@H](C)OC)c2c3cc(ccc31)-c1cc(O)cc(c1)C[C@H](NC(=O)[C@H](C(C)C)N(C)C(=O)[C@H]1CCN(C(=O)[C@H]3CN3)C1)C(=O)N1CCC[C@H](N1)C(=O)OCC(C)(C)C2 (atropisomer, axis not shown) [Example 43B] | 1000 to 10000 |  |  |  |  |  |  | 
CCn1c(-c2cnccc2COC)c2c3cc(ccc31)-c1cc(O)cc(c1)C[C@H](NC(=O)[C@H](C(C)C)N(C)C(=O)CCN(C)C(=O)[C@H]1CN1)C(=O)N1CCC[C@H](N1)C(=O)OCC(C)(C)C2 (single isomer, unassigned) [Example 41] | 100 to 1000 | 100 to 1000 | 100 to 1000 | < 10 | < 10 | 10 to 100 | 100 to 1000 | 100 to 1000
CCn1c(-c2cnccc2COC)c2c3cc(ccc31)-c1cc(O)cc(c1)C[C@H](NC(=O)[C@H](C(C)C)N(C)C(=O)[C@H]1CCN(C(=O)[C@H]3CN3)C1)C(=O)N1CCC[C@H](N1)C(=O)OCC(C)(C)C2 [Example 1, (3S)-1-((R)-aziridine-2-carbonyl)-N-((2S)-1-(((6^3S,4S)-1^1-ethyl-25-hydroxy-1^2-(4-(methoxymethyl)pyridin-3-yl)-10,10-dimethyl-5,7-dioxo-6^1,6^2,6^3,6^4,6^5,6^6-hexahydro-1^1H-8-oxa-1 (5,3)-indola-6 (1,3)-pyridazina-2 (1,3)-benzenacycloundecaphane-4-yl)amino)-3-methyl-1-oxobutan-2-yl)-N-methylpyrrolidine-3-carboxamide] | 100 to 1000 | 10 to 100 | 100 to 1000 | < 10 | < 10 | 100 to 1000 | 100 to 1000 | 10 to 100
CCn1c(-c2cnccc2COC)c2c3cc(ccc31)-c1cc(O)cc(c1)C[C@H](NC(=O)[C@H](C(C)C)N(C)C(=O)[C@H]1CCN(C(=O)[C@@H]3CN3)C1)C(=O)N1CCC[C@H](N1)C(=O)OCC(C)(C)C2 [Example 2] | 100 to 1000 | 100 to 1000 | 100 to 1000 | 10 to 100 | 10 to 100 | 100 to 1000 | 100 to 1000 | 100 to 1000
CCn1c(-c2cnccc2COC)c2c3cc(ccc31)-c1cc(O)cc(c1)C[C@H](NC(=O)[C@H](C(C)C)N(C)C(=O)C1CCN(C(=O)[C@H]3CN3)CC1)C(=O)N1CCC[C@H](N1)C(=O)OCC(C)(C)C2 [Example 3] | 100 to 1000 | 100 to 1000 | 100 to 1000 | 10 to 100 | 10 to 100 | 10 to 100 | 1000 to 10000 | 100 to 1000
CCn1c(-c2cnccc2COC)c2c3cc(ccc31)-c1cc(O)cc(c1)C[C@H](NC(=O)[C@H](C(C)C)N(C)C(=O)C1CCN(C(=O)[C@@H]3CN3)CC1)C(=O)N1CCC[C@H](N1)C(=O)OCC(C)(C)C2 [Example 4] | 100 to 1000 | 100 to 1000 | 100 to 1000 | 10 to 100 | 100 to 1000 | 10 to 100 | 1000 to 10000 | 100 to 1000
CCn1c(-c2cnccc2COC)c2c3cc(ccc31)-c1cc(O)cc(c1)C[C@H](NC(=O)[C@H](C(C)C)N(C)C(=O)C1CN(C(=O)[C@H]3CN3)C1)C(=O)N1CCC[C@H](N1)C(=O)OCC(C)(C)C2 [Example 5] | 100 to 1000 | 100 to 1000 | 100 to 1000 | 10 to 100 | < 10 | 100 to 1000 | 1000 to 10000 | 100 to 1000
CCn1c(-c2cnccc2COC)c2c3cc(ccc31)-c1cc(O)cc(c1)C[C@H](NC(=O)[C@H](C(C)C)N(C)C(=O)C1CN(C(=O)[C@@H]3CN3)C1)C(=O)N1CCC[C@H](N1)C(=O)OCC(C)(C)C2 [Example 6] | 100 to 1000 | 100 to 1000 | 1000 to 10000 | 10 to 100 | 10 to 100 | 100 to 1000 | 1000 to 10000 | 100 to 1000
